Converted amounts (≈) assume the structure as drawn.
What was measured:
Staphylococcus aureus [1] = experiment: Antibacterial activity against Staphylococcus aureus assessed as inhibition of bacterial growth by broth dilution method; assay type: functional
Staphylococcus aureus [2] = experiment: Antibacterial activity against Staphylococcus aureus TISTR 1466 assessed as inhibition of bacterial growth by two-fold serial dilution method; assay type: functional
Staphylococcus aureus [3] = experiment: Antibacterial activity against methicillin-resistant Staphylococcus aureus SK1 assessed as inhibition of bacterial growth by two-fold serial dilution method; assay type: functional
Escherichia coli [4] = experiment: Antibacterial activity against Escherichia coli TISTR 780 assessed as inhibition of bacterial growth by two-fold serial dilution method; assay type: functional
Salmonella typhimurium = experiment: Antibacterial activity against Salmonella typhimurium TISTR 292 assessed as inhibition of bacterial growth by two-fold serial dilution method; assay type: functional, Salmonella enterica subsp. enterica serovar Typhimurium; settings: Salmonella enterica
[5] = system: Staphylococcus epidermidis; experiment: Antibacterial activity against Staphylococcus epidermidis assessed as zone of inhibition at 25 ug/ml; assay type: functional; settings: read-out: IZ
Proteus vulgaris = experiment: Antibacterial activity against Proteus vulgaris assessed as zone of inhibition at 25 ug/ml; assay type: functional; settings: read-out: IZ
Escherichia coli [6] = experiment: Antibacterial activity against Escherichia coli assessed as zone of inhibition at 25 ug/ml; assay type: functional; settings: read-out: IZ
Escherichia coli [7] = experiment: Antibacterial activity against Escherichia coli assessed as inhibition of bacterial growth by agar well dilution assay; assay type: functional
Staphylococcus aureus [8] = experiment: Antibacterial activity against Staphylococcus aureus assessed as inhibition of bacterial growth by agar well dilution assay; assay type: functional
Pasteurella multocida = experiment: Antibacterial activity against Pasteurella multocida assessed as inhibition of bacterial growth by agar well dilution assay; assay type: functional
Bacillus subtilis [9] = experiment: Antibacterial activity against Bacillus subtilis assessed as inhibition of bacterial growth by agar well dilution assay; assay type: functional
Pseudomonas aeruginosa [10] = experiment: Antibacterial activity against Pseudomonas aeruginosa assessed as zone of inhibition incubated for 24 hrs by disk diffusion method; assay type: functional
Staphylococcus aureus [11] = experiment: Antibacterial activity against Staphylococcus aureus assessed as inhibition of bacterial growth by broth microdilution method; assay type: functional
Klebsiella pneumoniae [12] = experiment: Antibacterial activity against Klebsiella pneumoniae assessed as inhibition of bacterial growth by broth microdilution method; assay type: functional
Escherichia coli [13] = experiment: Antibacterial activity against Escherichia coli assessed as inhibition of bacterial growth by broth microdilution method; assay type: functional
Pseudomonas aeruginosa [14] = experiment: Antibacterial activity against Pseudomonas aeruginosa assessed as inhibition of bacterial growth by broth microdilution method; assay type: functional
Staphylococcus aureus [15] = experiment: Antimicrobial activity against Staphylococcus aureus ATCC 29213 assessed as inhibition of microbial growth incubated for 24 hrs by two-fold serial dilution assay; assay type: functional
Bacillus subtilis [16] = experiment: Antimicrobial activity against Bacillus subtilis ATCC 6633 assessed as inhibition of microbial growth incubated for 24 hrs by two-fold serial dilution assay; assay type: functional
Priestia megaterium = experiment: Antimicrobial activity against Bacillus megaterium ATCC 9885 assessed as inhibition of microbial growth incubated for 24 hrs by two-fold serial dilution assay; assay type: functional
Micrococcus luteus = experiment: Antimicrobial activity against Sarcina lutea assessed as inhibition of microbial growth incubated for 24 hrs by two-fold serial dilution assay; assay type: functional
Klebsiella pneumoniae [17] = experiment: Antimicrobial activity against Klebsiella pneumoniae ATCC 13883 assessed as inhibition of microbial growth incubated for 24 hrs by two-fold serial dilution assay; assay type: functional
Pseudomonas aeruginosa [18] = experiment: Antimicrobial activity against Pseudomonas aeruginosa ATCC 27953 assessed as inhibition of microbial growth incubated for 24 hrs by two-fold serial dilution assay; assay type: functional
Escherichia coli [19] = experiment: Antimicrobial activity against Escherichia coli ATCC 25922 assessed as inhibition of microbial growth incubated for 24 hrs by two-fold serial dilution assay; assay type: functional
Candida albicans = experiment: Antimicrobial activity against Candida albicans NRRL Y-477 assessed as inhibition of microbial growth incubated for 48 hrs by two-fold serial dilution assay; assay type: functional
[20] = system: Cryptococcus deuterogattii; experiment: Antifungal activity against Cryptococcus gattii VGII WM178/08 assessed as inhibition of fungal growth incubated for 24 to 48 hrs by CLSI protocol based broth microdilution method; assay type: functional, Cryptococcus bacillisporus; settings: time 24-48 hrs
Cryptococcus neoformans = experiment: Antifungal activity against Cryptococcus neoformans […] assessed as inhibition of fungal growth incubated for 24 to 48 hrs by CLSI protocol based broth microdilution method; assay type: functional; settings: time 24-48 hrs
Staphylococcus aureus [21] = experiment: Antibacterial activity against Staphylococcus aureus assessed as zone of inhibition by agar-disc diffusion method; assay type: functional
Bacillus subtilis [22] = experiment: Antibacterial activity against Bacillus subtilis assessed as zone of inhibition by agar-disc diffusion method; assay type: functional
Staphylococcus aureus [23] = experiment: Antimicrobial activity against methicillin-resistant Staphylococcus aureus assessed as inhibition of microbial growth incubated for 18 hrs by agar diffusion method; assay type: functional
Pythium = experiment: Antifungal activity against Pythium assessed as zone of inhibition incubated upto 9 days by disc diffusion assay; assay type: functional; settings: time <= 9 day
Vibrio cholerae = experiment: Antibacterial activity against Vibrio cholerae assessed as inhibition of bacterial growth incubated for 24 hrs by broth microdilution method; assay type: functional
Shigella flexneri = experiment: Antibacterial activity against Shigella flexneri assessed as inhibition of bacterial growth incubated for 24 hrs by broth microdilution method; assay type: functional
Staphylococcus aureus [24] = experiment: Antibacterial activity against Staphylococcus aureus assessed as inhibition of bacterial growth incubated for 24 hrs by broth microdilution method; assay type: functional
Staphylococcus aureus [25] = experiment: Antibacterial activity against Staphylococcus aureus assessed as inhibition of bacterial growth; assay type: functional, organism-based

COc1cc2c3c([nH]c2cc1C)C(=O)C=C(C)C3=O
MIC (Staphylococcus aureus [1]): 50 µg/mL (≈ 196 µM)

COC(=O)c1cc(O)c2[nH]c3ccc(O)c(CC=C(C)C)c3c2c1
MIC (Staphylococcus aureus [2]): 64 µg/mL (≈ 197 µM)
MIC (Staphylococcus aureus [3]): 64 µg/mL (≈ 197 µM)
MIC (Escherichia coli [4]): 64 µg/mL (≈ 197 µM)
MIC (Salmonella typhimurium): 64 µg/mL (≈ 197 µM)

CC1(C)C=Cc2c(ccc3[nH]c4ccc(C=O)cc4c23)O1
MIC (Staphylococcus aureus [2]): 64 µg/mL (≈ 231 µM)
MIC (Staphylococcus aureus [3]): 64 µg/mL (≈ 231 µM)
MIC (Escherichia coli [4]): 64 µg/mL (≈ 231 µM)
MIC (Salmonella typhimurium): 64 µg/mL (≈ 231 µM)

Cc1cccc2c3c([nH]c12)C(=O)/C(=C/c1ccc(Br)cc1)CC3
zone of inhibition at 25 µg/mL [5]: 15 mm
zone of inhibition at 25 µg/mL (Proteus vulgaris): 15 mm
zone of inhibition at 25 µg/mL (Escherichia coli [6]): 15 mm

C/C(=N/C(=S)C(=S)n1cc(CC(=O)O)c2ccccc21)C1CCCc2c1[nH]c1c([N+](=O)[O-])cc([N+](=O)[O-])cc21 (stereo not drawn)
MIC (Escherichia coli [7]): 0.056 µg/mL (≈ 0.0994 µM)
MIC (Staphylococcus aureus [8]): 0.056 µg/mL (≈ 0.0994 µM)
MIC (Pasteurella multocida): 0.056 µg/mL (≈ 0.0994 µM)
MIC (Bacillus subtilis [9]): 0.056 µg/mL (≈ 0.0994 µM)

C=CC(=C)c1c(C(=O)OC)cc(O)c2[nH]c3ccccc3c12
MIC (Staphylococcus aureus [2]): 4 µg/mL (≈ 13.6 µM)
MIC (Staphylococcus aureus [3]): 4 µg/mL (≈ 13.6 µM)

CCOc1nc2c(c(-c3ccc(F)cc3)c1C(N)=O)CCc1c-2[nH]c2ccccc12
inhibition zone (IZ) (Pseudomonas aeruginosa [10]): 2.1 cm

Cc1cc2c([nH]c3ccc(O)cc32)c2c1OC(C)(C)C=C2
MIC90 (Staphylococcus aureus [11]): 3.12 µg/mL (≈ 11.2 µM)
MIC90 (Klebsiella pneumoniae [12]): 3.12 µg/mL (≈ 11.2 µM)
MIC90 (Escherichia coli [13]): > 100 µg/mL
MIC90 (Pseudomonas aeruginosa [14]): > 100 µg/mL

C/C(=N\C(Cc1c[nH]cn1)C(=O)Oc1cc(C(=O)O)cc(O)c1O)C1CCCc2c1[nH]c1c([N+](=O)[O-])cc([N+](=O)[O-])cc21 (stereo not drawn)
MIC (Escherichia coli [7]): 0.056 µg/mL (≈ 0.0945 µM)
MIC (Staphylococcus aureus [8]): 0.056 µg/mL (≈ 0.0945 µM)
MIC (Pasteurella multocida): 0.056 µg/mL (≈ 0.0945 µM)
MIC (Bacillus subtilis [9]): 0.056 µg/mL (≈ 0.0945 µM)

CSC(=S)NNC(=O)c1ccc(-n2c3c(c4ccccc42)CCCC3)cc1
MIC (Staphylococcus aureus [15]): 25 µg/mL
MIC (Bacillus subtilis [16]): 25 µg/mL
MIC (Priestia megaterium): 25 µg/mL
MIC (Micrococcus luteus): 25 µg/mL
MIC (Klebsiella pneumoniae [17]): 25 µg/mL
MIC (Pseudomonas aeruginosa [18]): 25 µg/mL
MIC (Escherichia coli [19]): 25 µg/mL
MIC (Candida albicans): 25 µg/mL

c1ccc2c(c1)[nH]c1ccccc12 [CARBAZOLE]
MIC [20]: 160 µg/mL (≈ 957 µM)
MIC (Cryptococcus neoformans): 160 µg/mL (≈ 957 µM)

O=C(O)c1cn(C2CC2)c2cc(N3CCNCC3)c(F)cc2c1=O [CIPROFLOXACIN]
inhibition zone (IZ) (Staphylococcus aureus [21]): 15 mm
inhibition zone (IZ) (Bacillus subtilis [22]): 15 mm

C=C(C)C1Cc2c(cc(O)c3[nH]c4ccccc4c23)C(=O)O1 (stereo not drawn) [CLAUSAMINE A]
MIC (Staphylococcus aureus [3]): 8 µg/mL (≈ 27.3 µM)
MIC (Staphylococcus aureus [23]): 64 µg/mL

C=C(C)C1Cc2c(cc(OC)c3[nH]c4ccccc4c23)C(=O)O1 (stereo not drawn) [CLAUSAMINE B]
MIC (Staphylococcus aureus [3]): 0.25 µg/mL (≈ 0.813 µM)

COc1ccc2c(c1)[nH]c1cc(OC)c(C(=O)O)cc12 [CLAUSINE K]
inhibition zone (IZ) (Pythium): 16.2 mm

COC(=O)c1cc2c(cc1OC)[nH]c1ccccc12 [CLAUSINE L]
inhibition zone (IZ) (Pythium): 10.2 mm

COc1cc(C=O)c(CC=C(C)C)c2c1[nH]c1ccccc12 [EKEBERGININE]
MIC (Vibrio cholerae): 32 µg/mL (≈ 109 µM)
MIC (Shigella flexneri): 32 µg/mL (≈ 109 µM)
MIC (Staphylococcus aureus [24]): 32 µg/mL (≈ 109 µM)

CC(C)=CCc1c(O)c(C=O)cc2c1[nH]c1ccccc12 [HEPTAPHYLLINE]
inhibition zone (IZ) (Staphylococcus aureus [21]): 14 mm
inhibition zone (IZ) (Bacillus subtilis [22]): 12 mm

NC[C@H]1O[C@H](O[C@H]2[C@H](O)[C@@H](O[C@H]3O[C@H](CO)[C@@H](O)[C@H](N)[C@H]3O)[C@H](N)C[C@@H]2N)[C@H](O)[C@@H](O)[C@@H]1O [KANAMYCIN]
MIC90 (Staphylococcus aureus [11]): 12.5 µg/mL (≈ 25.8 µM)
MIC90 (Klebsiella pneumoniae [12]): 12.5 µg/mL (≈ 25.8 µM)

COc1ccc2[nH]c3c4c(c(C)cc3c2c1)OC(C)(C)C=C4 [KOENIMBINE]
IC50 (Staphylococcus aureus [25]): 17 µM

CC1=CC(=O)c2[nH]c3ccccc3c2C1=O [MURRAYAQUINONE A]
MIC (Staphylococcus aureus [1]): 50 µg/mL (≈ 237 µM)

Source: ChEMBL document CHEMBL5532637, “Antimicrobial activity of natural and semi-synthetic carbazole alkaloids” (Eur J Med Chem, 2023)
